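Cells were grown in 96-well plates and exposed to each compound for 48 hours at five concentrations; endpoints were interpolated linearly between bracketing concentrations, or set to the highest concentration if not reached. GI50 marks 50% less growth.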 Active and inactive are the calls of the source. No stated cut-off is given here; in the data, active = GI50 up to about 1.1 µM and inactive = higher. Bounds are passed on as bounds.

Among the test systems are MDA-N; U-251; UO-31; MCF7; SNB-75; BT-549; SK-MEL-5; 786-0; SF-539; RXF 393; HCT-15; NCI-H522; NCI-H460; SNB-19; RPMI-8226; Malme-3M; CCRF-CEM; HL-60; SR.
Experiment in all cases: NCI tumour cell line growth inhibition, 48 h

Consider `C=CCCCC1(C)CCNC1=S` (stereo not given), for which the GI50 in the test on MDA-N, in the test with U-251, with UO-31, in the test with MCF7, in the test with SNB-75 and in the test on BT-549 was > 100 µM (inactive) each time. Further, the GI50 with SK-MEL-5 was > 100 µM (inactive); in the test on 786-0, > 100 µM (inactive); in the test with SF-539 it was > 100 µM (inactive); in the test with RXF 393, > 100 µM (inactive); in the test with HCT-15, above 100 µM; in the test with NCI-H522 it was > 100 µM (inactive). Also, the GI50 in the test on NCI-H460, with SNB-19 and in the test on RPMI-8226 was > 100 µM (inactive) in each case.

Regarding `C[C@H]1S[C@H](c2c(F)cccc2F)n2c1nc1ccccc12`, the GI50 with Malme-3M was 41.5 µM (inactive); in the test with MDA-N, 59.2 µM (inactive); with U-251, 54.5 µM (inactive); with CCRF-CEM it was 40.5 µM (inactive); in the test with UO-31, 34.4 µM (inactive); with MCF7, 33.8 µM (inactive). Besides, the GI50 with SNB-75 is > 100 µM (inactive); with BT-549, 52.8 µM (inactive); in the test on SK-MEL-5, 20.2 µM (inactive); with 786-0, 64.9 µM (inactive); in the test with RXF 393, 28.6 µM (inactive); with HCT-15, 47 µM. Further, the GI50 in the test with NCI-H460 is 25.4 µM (inactive); in the test with SNB-19, > 100 µM (inactive); in the test with RPMI-8226, 37.5 µM (inactive).

For the compound `Fc1ccc(C(OCCN2CCC3CCC(C2)N3C/C=C/c2cccnc2)c2ccc(F)cc2)cc1` (stereo not given), the GI50 was 4.08 µM (inactive) in the test with Malme-3M; 11.6 µM (inactive) with MDA-N; 11.9 µM (inactive) in the test on U-251; 4.11 µM (inactive) with CCRF-CEM; 1.88 µM (inactive) in the test on UO-31; 11 µM (inactive) with MCF7. The GI50 is 14.2 µM (inactive) in the test on SNB-75; 13.6 µM (inactive) in the test with BT-549; 4.01 µM (inactive) with SK-MEL-5; 5.27 µM (inactive) in the test with 786-0; 11.5 µM (inactive) with SF-539; 5.28 µM (inactive) in the test with RXF 393. Moreover, the GI50 with HCT-15 was 10 µM; in the test with NCI-H522, 13.6 µM (inactive); in the test on NCI-H460 it was 12.7 µM (inactive); with SNB-19, 15.2 µM (inactive); in the test on RPMI-8226, 3.43 µM (inactive).

Turning to `CC(C)(C)C1=CC(O)(c2c3ccccc3c(C3(O)C=C(C(C)(C)C)C(=O)C(C(C)(C)C)=C3)c3ccccc23)C=C(C(C)(C)C)C1=O`, the GI50 with Malme-3M is > 100 µM (inactive); in the test on MDA-N it was > 100 µM (inactive); in the test on U-251, > 100 µM (inactive); in the test on CCRF-CEM it was 50.2 µM (inactive); in the test with UO-31, > 100 µM (inactive); with MCF7 it was > 100 µM (inactive). For the same compound, the GI50 in the test on SNB-75 was 35.2 µM (inactive); with BT-549 it was > 100 µM (inactive); in the test on SK-MEL-5, > 100 µM (inactive); in the test on 786-0, > 100 µM (inactive); in the test on SF-539 it was > 100 µM (inactive); with HCT-15, above 100 µM. The GI50 is > 10 µM (inactive) in the test on HL-60, > 100 µM (inactive) in the test with NCI-H522, > 100 µM (inactive) in the test with SNB-19 and 58.3 µM (inactive) in the test with RPMI-8226.

Consider `Cc1ccc(-c2c(C#N)c(-c3ccc(Cl)cc3)c(C#N)c(=O)n2NS(=O)(=O)c2ccc(C)cc2)cc1`, for which the GI50 is 20.8 µM (inactive) with Malme-3M; 43.8 µM (inactive) in the test on MDA-N; 36.2 µM (inactive) with U-251; 20.7 µM (inactive) with CCRF-CEM; 15.2 µM (inactive) in the test on MCF7; 30.1 µM (inactive) with SNB-75. Further, the GI50 was 23.5 µM (inactive) in the test on BT-549; 23.1 µM (inactive) in the test on SK-MEL-5; 42.4 µM (inactive) in the test with 786-0; 18.7 µM (inactive) in the test on SF-539; 21 µM (inactive) in the test on RXF 393; 28.2 µM with HCT-15. Also, the GI50 with NCI-H522 is 23.1 µM (inactive); with NCI-H460 it was 27.4 µM (inactive); in the test with SNB-19, 36.3 µM (inactive).

For the compound `O=C1CCCCC/C1=C\c1ccccc1`, the GI50 is > 100 µM (inactive) with Malme-3M; > 100 µM (inactive) in the test on SR; > 100 µM (inactive) in the test with MDA-N; > 100 µM (inactive) in the test with U-251; > 100 µM (inactive) in the test with UO-31; 87.3 µM (inactive) in the test on SNB-75. In addition, the GI50 with BT-549 is > 100 µM (inactive); in the test with SK-MEL-5, 45 µM (inactive); in the test on 786-0, > 100 µM (inactive); with HCT-15 it was above 100 µM; in the test with HL-60, 18.2 µM (inactive); with NCI-H522, > 100 µM (inactive). Moreover, the results for the GI50 in the test with NCI-H460, in the test with SNB-19 and in the test on RPMI-8226 were 90.6 µM (inactive), > 100 µM (inactive) and 56.4 µM (inactive), respectively.

`NS(=O)(=O)c1ccc(NCc2nc3ccccc3[nH]2)cc1`: the GI50 in the test with Malme-3M, with MDA-N, with U-251, in the test on UO-31, in the test with MCF7 and in the test with SNB-75 was > 100 µM (inactive) throughout. The GI50 in the test with BT-549 is > 100 µM (inactive); with SK-MEL-5, > 100 µM (inactive); in the test with 786-0, > 100 µM (inactive); with SF-539, > 100 µM (inactive); with RXF 393, > 100 µM (inactive); with HCT-15, above 100 µM. Also, the GI50 in the test with NCI-H522, with NCI-H460 and in the test with SNB-19 was > 100 µM (inactive) each time.

For `COc1ccc(/C=N/n2c(-c3ccccc3)n[nH]c2=O)cc1`, the GI50 was > 100 µM (inactive) in the test on Malme-3M; > 100 µM (inactive) with MDA-N; > 100 µM (inactive) in the test on U-251; > 100 µM (inactive) in the test with CCRF-CEM; 95.3 µM (inactive) in the test on UO-31; > 100 µM (inactive) in the test on MCF7. The GI50 with SNB-75 is > 100 µM (inactive); with BT-549 it was > 100 µM (inactive); with 786-0 it was > 100 µM (inactive); with SF-539, > 100 µM (inactive); with HCT-15, above 100 µM; in the test with NCI-H460, > 100 µM (inactive). Moreover, the GI50 in the test on SNB-19 and with RPMI-8226 was > 100 µM (inactive) in each case.

Consider `CC(C)[Si](OC1=C(c2ccccc2)C(NC(=O)/C=C/c2ccc([N+](=O)[O-])cc2)CCC1)(C(C)C)C(C)C` (stereo not given), for which the GI50 in the test with Malme-3M, in the test on SR, in the test on U-251, in the test with CCRF-CEM, in the test with UO-31 and in the test on MCF7 was > 100 µM (inactive) in each case. Moreover, the GI50 in the test on SNB-75, in the test on BT-549, in the test with SK-MEL-5, with 786-0, with SF-539 and in the test on RXF 393 was > 100 µM (inactive) in each case. The GI50 in the test with HCT-15 is above 100 µM; with HL-60, > 100 µM (inactive); with NCI-H522, > 100 µM (inactive); with NCI-H460 it was > 100 µM (inactive); with SNB-19, > 100 µM (inactive); in the test on RPMI-8226 it was 9.71 µM (inactive).

For the origin of these results see ChEMBL document CHEMBL1201862, “PubChem BioAssay data set” (2004).
